Assay results taken from US5591714A, “Derivatives of A82846” (priority 1994, dated 1997).

Key:
Assay in all cases: In vivo activity, experimentally infected mice (ED50)
Streptococcus pneumoniae = Streptococcus pneumoniae infection; doses administered subcutaneously to mice 1 and 4 hours postinfection
Streptococcus pyogenes = Streptococcus pyogenes infection; doses administered subcutaneously to mice 1 and 4 hours postinfection
Staphylococcus aureus = Staphylococcus aureus infection; doses administered subcutaneously to mice 1 and 4 hours postinfection

SMILES	ED50 (Streptococcus pneumoniae) [mg/kg/2]	ED50 (Streptococcus pyogenes) [mg/kg/2]	ED50 (Staphylococcus aureus) [mg/kg/2]
CN[C@H](CC(C)C)C(=O)N[C@H]1C(=O)N[C@@H](CC(N)=O)C(=O)N[C@H]2C(=O)N[C@H]3C(=O)N[C@H](C(=O)N[C@H](C(=O)O)c4cc(O)cc(O)c4-c4cc3ccc4O)[C@H](O[C@H]3C[C@](C)(N)[C@@H](O)[C@H](C)O3)c3ccc(cc3)Oc3cc2cc(c3O[C@@H]2O[C@H](CO)[C@@H](O)[C@H](O)[C@H]2O[C@H]2C[C@](C)(NCc3ccc(Cl)cc3)[C@@H](O)[C@H](C)O2)Oc2ccc(cc2Cl)[C@H]1O [Compound 20]	0.23	0.15	> 2.0
CCCCCCCCN(C)[C@H](CC(C)C)C(=O)N[C@H]1C(=O)N[C@@H](CC(N)=O)C(=O)N[C@H]2C(=O)N[C@H]3C(=O)N[C@H](C(=O)N[C@H](C(=O)O)c4cc(O)cc(O)c4-c4cc3ccc4O)[C@H](O[C@H]3C[C@](C)(N)[C@@H](O)[C@H](C)O3)c3ccc(cc3)Oc3cc2cc(c3O[C@@H]2O[C@H](CO)[C@@H](O)[C@H](O)[C@H]2O[C@H]2C[C@](C)(N)[C@@H](O)[C@H](C)O2)Oc2ccc(cc2Cl)[C@H]1O [Compound 2]	1.25	0.79	> 5.0
CCCCCCCCCCN[C@@]1(C)C[C@H](O[C@H]2[C@H](Oc3c4cc5cc3Oc3ccc(cc3Cl)[C@@H](O)[C@@H](NC(=O)[C@@H](CC(C)C)NC)C(=O)N[C@@H](CC(N)=O)C(=O)N[C@H]5C(=O)N[C@H]3C(=O)N[C@H](C(=O)N[C@H](C(=O)O)c5cc(O)cc(O)c5-c5cc3ccc5O)[C@H](O[C@H]3C[C@](C)(N)[C@@H](O)[C@H](C)O3)c3ccc(cc3)O4)O[C@H](CO)[C@@H](O)[C@@H]2O)O[C@@H](C)[C@@H]1O [Compound 9]	–	0.68	–
CNC(CC(C)C)C(=O)NC1C(=O)NC(CC(N)=O)C(=O)NC2C(=O)NC3C(=O)NC(C(=O)NC(C(=O)O)c4cc(O)cc(O)c4-c4cc3ccc4O)C(OC3CC(C)(NCCCc4ccccc4)C(O)C(C)O3)c3ccc(c(Cl)c3)Oc3cc2cc(c3OC2OC(CO)C(O)C(O)C2OC2CC(C)(NCCCc3ccccc3)C(O)C(C)O2)Oc2ccc(cc2Cl)C1O (stereo not shown) [Compound 50]	1.02	0.6	> 5.0
CN[C@H](CC(C)C)C(=O)N[C@H]1C(=O)N[C@@H](CC(N)=O)C(=O)N[C@H]2C(=O)N[C@H]3C(=O)N[C@H](C(=O)N[C@H](C(=O)O)c4cc(O)cc(O)c4-c4cc3ccc4O)[C@H](O[C@H]3C[C@](C)(NCCc4ccccc4)[C@@H](O)[C@H](C)O3)c3ccc(c(Cl)c3)Oc3cc2cc(c3O[C@@H]2O[C@H](CO)[C@@H](O)[C@H](O)[C@H]2O[C@H]2C[C@](C)(N)[C@@H](O)[C@H](C)O2)Oc2ccc(cc2Cl)[C@H]1O [Compound 44]	0.2	0.125	0.3
CNC(CC(C)C)C(=O)NC1C(=O)NC(CC(N)=O)C(=O)NC2C(=O)NC3C(=O)NC(C(=O)NC(C(=O)O)c4cc(O)cc(O)c4-c4cc3ccc4O)C(OC3CC(C)(NCc4ccc(F)cc4)C(O)C(C)O3)c3ccc(c(Cl)c3)Oc3cc2cc(c3OC2OC(CO)C(O)C(O)C2OC2CC(C)(NCc3ccc(F)cc3)C(O)C(C)O2)Oc2ccc(cc2Cl)C1O (stereo not shown) [Compound 68]	0.12	0.09	0.80
CNC(CC(C)C)C(=O)NC1C(=O)NC(CC(N)=O)C(=O)NC2C(=O)NC3C(=O)NC(C(=O)NC(C(=O)O)c4cc(O)cc(O)c4-c4cc3ccc4O)C(OC3CC(C)(NCC(c4ccccc4)c4ccccc4)C(O)C(C)O3)c3ccc(c(Cl)c3)Oc3cc2cc(c3OC2OC(CO)C(O)C(O)C2OC2CC(C)(N)C(O)C(C)O2)Oc2ccc(cc2Cl)C1O (stereo not shown) [Compound 46]	0.22	0.14	0.75
CNC(CC(C)C)C(=O)NC1C(=O)NC(CC(N)=O)C(=O)NC2C(=O)NC3C(=O)NC(C(=O)NC(C(=O)O)c4cc(O)cc(O)c4-c4cc3ccc4O)C(OC3CC(C)(NCc4ccccc4)C(O)C(C)O3)c3ccc(c(Cl)c3)Oc3cc2cc(c3OC2OC(CO)C(O)C(O)C2OC2CC(C)(NCc3ccccc3)C(O)C(C)O2)Oc2ccc(cc2Cl)C1O (stereo not shown) [Compound 53]	0.18	0.2	1.25
CCCCCCCCN[C@@]1(C)C[C@H](O[C@H]2[C@H](Oc3c4cc5cc3Oc3ccc(cc3Cl)[C@@H](O[C@H]3C[C@](C)(NCCCCCCCC)[C@@H](O)[C@H](C)O3)[C@@H]3NC(=O)[C@H](NC(=O)[C@@H]5NC(=O)[C@H](CC(N)=O)NC(=O)[C@H](NC(=O)[C@@H](CC(C)C)NC)[C@H](O)c5ccc(c(Cl)c5)O4)c4ccc(O)c(c4)-c4c(O)cc(O)cc4[C@@H](C(=O)O)NC3=O)O[C@H](CO)[C@@H](O)[C@@H]2O)O[C@@H](C)[C@@H]1O [Compound 41]	0.32	0.18	1.22
CCCCCCCCN(C)[C@H](CC(C)C)C(=O)N[C@H]1C(=O)N[C@@H](CC(N)=O)C(=O)N[C@H]2C(=O)N[C@H]3C(=O)N[C@H](C(=O)N[C@H](C(=O)O)c4cc(O)cc(O)c4-c4cc3ccc4O)[C@H](O[C@H]3C[C@](C)(N)[C@@H](O)[C@H](C)O3)c3ccc(c(Cl)c3)Oc3cc2cc(c3O[C@@H]2O[C@H](CO)[C@@H](O)[C@H](O)[C@H]2O[C@H]2C[C@](C)(N)[C@@H](O)[C@H](C)O2)Oc2ccc(cc2Cl)[C@H]1O [Compound 39]	0.34	0.18	1.22
CN[C@H](CC(C)C)C(=O)N[C@H]1C(=O)N[C@@H](CC(N)=O)C(=O)N[C@H]2C(=O)N[C@H]3C(=O)N[C@H](C(=O)N[C@H](C(=O)O)c4cc(O)cc(O)c4-c4cc3ccc4O)[C@H](O[C@H]3C[C@](C)(NCCc4ccccc4)[C@@H](O)[C@H](C)O3)c3ccc(cc3)Oc3cc2cc(c3O[C@@H]2O[C@H](CO)[C@@H](O)[C@H](O)[C@H]2O[C@H]2C[C@](C)(N)[C@@H](O)[C@H](C)O2)Oc2ccc(cc2Cl)[C@H]1O [Compound 25]	0.76	0.50	> 1.0
CN[C@H](CC(C)C)C(=O)N[C@H]1C(=O)N[C@@H](CC(N)=O)C(=O)N[C@H]2C(=O)N[C@H]3C(=O)N[C@H](C(=O)N[C@H](C(=O)O)c4cc(O)cc(O)c4-c4cc3ccc4O)[C@H](O[C@H]3C[C@](C)(N)[C@@H](O)[C@H](C)O3)c3ccc(cc3)Oc3cc2cc(c3O[C@@H]2O[C@H](CO)[C@@H](O)[C@H](O)[C@H]2O[C@H]2C[C@](C)(NCC(c3ccccc3)c3ccccc3)[C@@H](O)[C@H](C)O2)Oc2ccc(cc2Cl)[C@H]1O [Compound 26]	0.47	0.48	> 3.0
CNC(CC(C)C)C(=O)NC1C(=O)NC(CC(N)=O)C(=O)NC2C(=O)NC3C(=O)NC(C(=O)NC(C(=O)O)c4cc(O)cc(O)c4-c4cc3ccc4O)C(OC3CC(C)(NCc4ccc(Br)cc4)C(O)C(C)O3)c3ccc(c(Cl)c3)Oc3cc2cc(c3OC2OC(CO)C(O)C(O)C2OC2CC(C)(NCc3ccc(Br)cc3)C(O)C(C)O2)Oc2ccc(cc2Cl)C1O (stereo not shown) [Compound 59]	< 0.31	0.25	3.16
CCCCCN[C@@]1(C)C[C@H](O[C@H]2[C@H](Oc3c4cc5cc3Oc3ccc(cc3Cl)[C@@H](O[C@H]3C[C@](C)(NCCCCC)[C@@H](O)[C@H](C)O3)[C@@H]3NC(=O)[C@H](NC(=O)[C@@H]5NC(=O)[C@H](CC(N)=O)NC(=O)[C@H](NC(=O)[C@@H](CC(C)C)N(C)CCCCC)[C@H](O)c5ccc(c(Cl)c5)O4)c4ccc(O)c(c4)-c4c(O)cc(O)cc4[C@@H](C(=O)O)NC3=O)O[C@H](CO)[C@@H](O)[C@@H]2O)O[C@@H](C)[C@@H]1O [Compound 37]	0.88	1.09	> 5.0
CCN(CC)c1ccc(CNC2(C)CC(OC3c4ccc(c(Cl)c4)Oc4cc5cc(c4OC4OC(CO)C(O)C(O)C4OC4CC(C)(NCc6ccc(N(CC)CC)cc6)C(O)C(C)O4)Oc4ccc(cc4Cl)C(O)C(NC(=O)C(CC(C)C)NC)C(=O)NC(CC(N)=O)C(=O)NC5C(=O)NC4C(=O)NC3C(=O)NC(C(=O)O)c3cc(O)cc(O)c3-c3cc4ccc3O)OC(C)C2O)cc1 (stereo not shown) [Compound 57]	–	< 0.62	–
CCCCCN[C@@]1(C)C[C@H](O[C@H]2[C@H](Oc3c4cc5cc3Oc3ccc(cc3Cl)[C@@H](O)[C@@H](NC(=O)[C@@H](CC(C)C)NC)C(=O)N[C@@H](CC(N)=O)C(=O)N[C@H]5C(=O)N[C@H]3C(=O)N[C@H](C(=O)N[C@H](C(=O)O)c5cc(O)cc(O)c5-c5cc3ccc5O)[C@H](O[C@H]3C[C@](C)(N)[C@@H](O)[C@H](C)O3)c3ccc(cc3)O4)O[C@H](CO)[C@@H](O)[C@@H]2O)O[C@@H](C)[C@@H]1O [Compound 5]	0.1	0.17	0.92
CC(C)CC(C(=O)NC1C(=O)NC(CC(N)=O)C(=O)NC2C(=O)NC3C(=O)NC(C(=O)NC(C(=O)O)c4cc(O)cc(O)c4-c4cc3ccc4O)C(OC3CC(C)(N)C(O)C(C)O3)c3ccc(c(Cl)c3)Oc3cc2cc(c3OC2OC(CO)C(O)C(O)C2OC2CC(C)(N)C(O)C(C)O2)Oc2ccc(cc2Cl)C1O)N(C)Cc1ccccc1 (stereo not shown) [Compound 52]	0.75	0.5	–
CCCCCN[C@@]1(C)C[C@H](O[C@H]2[C@H](Oc3c4cc5cc3Oc3ccc(cc3Cl)[C@@H](O)[C@@H](NC(=O)[C@@H](CC(C)C)N(C)CCCCC)C(=O)N[C@@H](CC(N)=O)C(=O)N[C@H]5C(=O)N[C@H]3C(=O)N[C@H](C(=O)N[C@H](C(=O)O)c5cc(O)cc(O)c5-c5cc3ccc5O)[C@H](O[C@H]3C[C@](C)(NCCCCC)[C@@H](O)[C@H](C)O3)c3ccc(cc3)O4)O[C@H](CO)[C@@H](O)[C@@H]2O)O[C@@H](C)[C@@H]1O [Compound 8]	> 4.0	2.69	> 4.0
